Reference: patent US4320052A, “Derivatives of A-30912A nucleus” (Eli Lilly and Company, priority 1980, dated 1982)
Read-outs that look alike come from different tables or passages of the source. Numbered stars: 1 amine (or outer) side, 2 acyl side, 3 side chain; on linkers, the order of the positions; unused ones are H or OH. Bridge positions count the residues as written; N and C are the ends. Square brackets hold non-standard residues; d marks the D form. Peptide text beside a SMILES is read from it. * marks the point of attachment. Orn(4R-OH,5R-OH) = O=C([C@H](C[C@@H](O)[C@@H](O)N[*:3])N[*:1])[*:2]; hTyr(3S-OH,4S-OH) = N[C@H](C(=O)O)[C@H](O)[C@@H](O)c1ccc(O)cc1; Pro(3S-OH,4S-Me) = C[C@H]1CN[C@H](C(=O)O)[C@H]1O; Palmitoleoyl = CCCCCC/C=C\CCCCCCCC(=O)*; Heptadecanoyl = CCCCCCCCCCCCCCCCC(=O)*; Hyp = O=C(O)[C@@H]1C[C@@H](O)CN1; X5 = CCCCCC/C=C/CCCCCCCC(=O)*; Lauroyl = CCCCCCCCCCCC(=O)*

Columns and labels:
Candida albicans A-26 [1] = assay: Agar plate disc diffusion test (MIC); type: cell-based; details: 0.01M sodium borate pH 7.5; 20 μg/disc top, twofold dilutions; 24 hours, 30° C.
Procedure: (§1) Tables II and III give the results of the testing in vitro of the compounds of Examples 1-16 by agar-plate disc-diffusion methods. In Table II activity is measured by the size (diameter in mm.) of the observed zone of inhibition of the microorganism produced by the test compound. In Table III, activity is measured by the minimal inhibitory concentration (MIC) of the substance (μg/dic) required to inhibit growth of the test organism. Table IV gives the results of the testing in vitro of the n-tridecanoyl derivative of A30912A nucleus (Formula III, R is n-C12 H25) against five strains of Candida albicans by the agar dilution method. In […] activity is measured by the minimal inhibitory concentration (MIC) of the substance (μg/ml) required to inhibit the test organism.
(§2) *Compounds were suspended in 0.01M sodium borate solution, pH 7.5. The
(§3) compounds were tested at 20 μg/disc at top level and at twofold
(§4) dilutions until end points were reached. Incubation: 24 hours; 30°

[2] = tested on: Trichophyton mentagrophytes #6; assay: Agar plate disc diffusion test (MIC); type: cell-based; details: 0.01M sodium borate pH 7.5; 20 μg/disc top, twofold dilutions; 24 hours, 30° C.
Procedure: as §1, §2, §3, §4

[3] = tested on: Saccharomyces pastoranius X-52; assay: Agar plate disc diffusion test (zone of inhibition); type: cell-based, Saccharomyces pastorianus; details: X52, suspension in methanol 1 mg/ml, 7mm disc, 24-48 hours at 25-37° C., read-out: Size of zone of inhibition, Saccharomyces pastoranius X-52
Procedure: as §1
(§5) ^(a) Compounds were tested as suspension in methanol at a
(§6) concentration of 1 mg/ml. by dipping a 7mm disc into the suspension and
(§7) placing it on the agar surface. Incubation: 24-48 hours at 25-37°

[4] = Blood levels after oral administration in mice (bioassay vs. Aspergillus montevidensis A35137); details: mouse, in vivo; for concentration at 4 h: po, 416 mg/kg
From the text: determined by bioassay vs. Aspergillus montevidensis A35137.

Candida albicans A-26 [5] = assay: Agar plate disc diffusion test (zone of inhibition); type: cell-based; details: suspension in methanol 1 mg/ml, 7mm disc; 24-48 hours at 25-37° C.
Procedure: as §1, §5, §6, §7

Neurospora crassa 846 = assay: as above; type: cell-based; details: Neurospora crassa, 846, suspension in methanol 1 mg/ml, 7mm disc
Procedure: as §1, §5, §6, §7

Candida albicans A-26 [6] = assay: In vivo activity against Candida albicans A-26 infection in mice; parameters: species or system mice infected with Candida albicans A-26; details: Candida albicans, A26, sc, 24 h, mice, subcutaneous; for ED50: increase in survival time, read-out: ED50; for minimal effective dose: read-out: Lowest Active Dose
Procedure: The results of in vivo tests to evaluate the effectiveness of the compound of Examples 1-16 against an infection caused by Candida albicans A-26 in mice are given in Table V, where activity is measured by the ED50 value (the dose in mg/kg. required to cure 50% of the test animals). Where an ED50 value was not obtained, activity is indicated by the lowest dose at which a significant anti-fungal effect is observed. In this test, groups of male albino mice (specific pathogen free), weighing 18 to 20 grams, are infected intravenously with Candida albicans A-26. The animals are X-irradiated 24 hours prior to infection at about 50 roentgens per minute for 8 minutes (400 total dose) to reduce immune responses to the infecting organism. At 0, 4, and 24 hours post infection each group of mice is given graded doses subcutaneously of the test compound as a suspension in 33% polyethylene glycol-water. The day of death for each animal is recorded.
mg/kg. Dosages given 0, 4, and 24 hours post injection as suspension of
test compound in 30% PEG--H2 O. Number of mice receiving test
compounds at each dosage level; 6 mice per group. Number of mice in
control (untreated) group: 10 mice per group.
**As measured by increase in survival time of treated animals versus
control, calculated by method of Reed v Mueuch, American J. Hygiene, 27,

[7] = tested on: Trichophyton mentagraphytes A-23; assay: Agar plate disc diffusion test (zone of inhibition); type: cell-based, Trichophyton mentagrophytes; details: A23, suspension in methanol 1 mg/ml, 7mm disc, *distinct measurable zone of inhibition with regrowth of organism around disc, read-out: Size of zone of inhibition, Trichophyton mentagraphytes A-23 (*)
Procedure: as §1, §5, §6, §7

[8] = 24-48 hours at 25-37° C., read-out: Size of zone of inhibition, Neurospora crassa 846
[9] = schedule B (80, 40, 20, 10 mg/kg), 0, 4, 24 hours
[10] = schedule A (40, 20, 15, and 10 mg/kg), 0, 4, 24 hours

Row | Structure (SMILES) | MIC, Candida albicans A-26 (Candida albicans A-26 [1]) | MIC, Trichophyton mentagrophytes #6 [2] | zone of inhibition at 1000 µg/mL [3] | Blood Levels After Oral Administration In Mice ([4]; 240 min) | Size of zone of inhibition, Candida albicans A-26 (Candida albicans A-26 [5]) | zone of inhibition at 1000 µg/mL (Neurospora crassa 846; [8]) | ED50 (Candida albicans A-26 [6]; [9]) | minimal effective dose (Candida albicans A-26 [6]; [9]) | zone of inhibition at 1000 µg/mL [7] | zone of inhibition at 1000 µg/mL (Neurospora crassa 846; *distinct measurable zone of inhibition with regrowth of organism around disc, read-out: Size of zone of inhibition, Neurospora crassa 846 (*)) | ED50 (Candida albicans A-26 [6]; [10]) | minimal effective dose (Candida albicans A-26 [6]; [10]) | concentration at 4 h [4]
1 | CCCCCCCCCCCC(=O)N[C@H]1C[C@@H](O)[C@@H](O)NC(=O)[C@@H]2[C@@H](O)[C@@H](C)CN2C(=O)[C@H]([C@@H](C)O)NC(=O)[C@H]([C@H](O)[C@@H](O)c2ccc(O)cc2)NC(=O)[C@@H]2C[C@@H](O)CN2C(=O)[C@H]([C@@H](C)O)NC1=O [Example 1] (Lauroyl-[Orn(4R-OH,5R-OH)]T[Hyp][hTyr(3S-OH,4S-OH)]T[Pro(3S-OH,4S-Me)]; lactam 1-C) | 1.25 μg/disc | 0.078 μg/disc | 16 mm | 0 ng/mL | 25 mm | 40 mm | 62 mg/kg | 20 mg/kg |  |  |  |  | 
2 | CCCCCC/C=C/CCCCCCCC(=O)N[C@H]1C[C@@H](O)[C@@H](O)NC(=O)[C@@H]2[C@@H](O)[C@@H](C)CN2C(=O)[C@H]([C@@H](C)O)NC(=O)[C@H]([C@H](O)[C@@H](O)c2ccc(O)cc2)NC(=O)[C@@H]2C[C@@H](O)CN2C(=O)[C@H]([C@@H](C)O)NC1=O [Example 3] (X5-[Orn(4R-OH,5R-OH)]T[Hyp][hTyr(3S-OH,4S-OH)]T[Pro(3S-OH,4S-Me)]; lactam 1-C) |  |  | 19 mm |  | 24 mm |  |  |  | 50 mm | 40 mm | 40 mg/kg | 20 mg/kg | 
3 | CCCCCC/C=C\CCCCCCCC(=O)N[C@H]1C[C@@H](O)[C@@H](O)NC(=O)[C@@H]2[C@@H](O)[C@@H](C)CN2C(=O)[C@H]([C@@H](C)O)NC(=O)[C@H]([C@H](O)[C@@H](O)c2ccc(O)cc2)NC(=O)[C@@H]2C[C@@H](O)CN2C(=O)[C@H]([C@@H](C)O)NC1=O [Example 4] (Palmitoleoyl-[Orn(4R-OH,5R-OH)]T[Hyp][hTyr(3S-OH,4S-OH)]T[Pro(3S-OH,4S-Me)]; lactam 1-C) |  | < 0.039 μg/disc |  |  |  |  |  |  |  |  | > 40 mg/kg | 20 mg/kg | 190 ng/mL
4 | CCCCCCCCCCCCCCCCC(=O)N[C@H]1C[C@@H](O)[C@@H](O)NC(=O)[C@@H]2[C@@H](O)[C@@H](C)CN2C(=O)[C@H]([C@@H](C)O)NC(=O)[C@H]([C@H](O)[C@@H](O)c2ccc(O)cc2)NC(=O)[C@@H]2C[C@@H](O)CN2C(=O)[C@H]([C@@H](C)O)NC1=O [Example 5] (Heptadecanoyl-[Orn(4R-OH,5R-OH)]T[Hyp][hTyr(3S-OH,4S-OH)]T[Pro(3S-OH,4S-Me)]; lactam 1-C) | 0.625 μg/disc | 0.039 μg/disc | 30 mm |  | 18 mm | 21 mm |  |  | 40 mm |  | 9 mg/kg | ≥ 5 mg/kg | 97000 ng/mL
